1 molecule from patent US8337835B2, “Use of an endogenous ligand for peroxisome proliferator activated receptor alpha to treat liver disorders” (priority 2009, dated 2012) can be followed below.

Structures are written as SMILES.

For the test, the target named is T1, PPARα (Mus musculus, UniProt P23204).
T1 construct: expressed in transfected cells; host or cells: liver of chow- or ZFD-fed WT mice on a PPARα null background, infected with AdFLAG-PPARα adenovirus
T1 sequence (P23204 1-468): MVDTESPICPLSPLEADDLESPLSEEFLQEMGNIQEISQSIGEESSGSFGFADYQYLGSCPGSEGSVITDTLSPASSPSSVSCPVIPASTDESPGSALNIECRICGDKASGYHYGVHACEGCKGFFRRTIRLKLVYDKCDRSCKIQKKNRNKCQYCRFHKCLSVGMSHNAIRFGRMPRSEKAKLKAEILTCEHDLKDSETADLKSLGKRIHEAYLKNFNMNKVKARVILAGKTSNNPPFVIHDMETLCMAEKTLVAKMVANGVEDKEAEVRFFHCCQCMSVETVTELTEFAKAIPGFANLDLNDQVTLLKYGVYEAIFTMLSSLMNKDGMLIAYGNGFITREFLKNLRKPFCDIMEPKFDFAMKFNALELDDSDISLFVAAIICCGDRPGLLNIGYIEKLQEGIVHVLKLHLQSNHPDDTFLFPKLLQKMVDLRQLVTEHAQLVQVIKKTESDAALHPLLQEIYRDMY
Put plainly: In vivo competitive inhibition: displacement of 16:0/18:1-GPC (m/z 766) from FLAG-tagged PPARα, ESI/MS. As to conditions: 50 μg/g intraperitoneal; chow and zero fat diet fed WT mice on PPARα null background with AdFLAG-PPARα; 0-60 min. As to the method: Freshly harvested livers (˜100 mg) were gently homogenized in ice-cold non-detergent hypotonic buffer (10 mM HEPES, pH 7.9, 1.5 mM MgCl2, 10 mM KCl, 100 mM DTT, protease and phosphatase inhibitor cocktail). After an additional 10 min incubation in the hypotonic buffer, the homogenate was centrifuged at 8000×g at 4° C. for 20 min. The pellet was homogenized in ice-cold extraction buffer (10 mM HEPES, pH 7.9, 1.5 mM MgCl2, 0.21 M NaCl, 0.2 mM EDTA, 25% (v/v) glycerol, 100 mM DTT, protease and phosphatase inhibitor cocktail), placed on a rotating shaker at 4° C. for 1 h, then centrifuged at 18,000×g for 10 min. […]
The in vivo displacement of the endogenous PPARα ligand 16:0/18:1-GPC by the PPARα agonist Wy14,643 was assessed by electrospray ionization mass spectrometry (ESI/MS) Analysis. […] Wy14,643 in chow fed WT mice on a PPARα null background injected with AdFLAG-PPARα adenovirus are shown in FIGS. 4A-D. Similarly, representative ESI/MS scans of GPC species at different time intervals following an intraperitoneal injection of 50 μg/g Wy14,643 in ZFD fed mice are shown in FIGS. 4E-H. Insets in FIGS. 4A-H depict the ion at m/z 766 (16:0/18:1-GPC) that is time-dependently competed away with Wy14,643 while quantification of the relative abundance of the peak abundance of m/z 766 ion in response to Wy14,643 is shown in FIG. 4I. […]

`Cc1cccc(Nc2cc(Cl)nc(SCC(=O)O)n2)c1C` [Wy14,643, 4-Chloro-6-(2,3-xylidino)-2-pyrimidinylthioacetic acid]: the “displacement of 16:0/18:1-GPC (m/z 766) from PPARα” value was “displaced from PPARα within minutes”.
